Test systems include HS 578T breast; T-47D breast; MDA-N; HOP-18 NSCLC; DMS 114 small cell lung; KM20L2 colon; DMS 273 small cell lung.
What all share (assay): NCI tumour cell line growth inhibition, 48 h

Several values for one entry are separate records, joined by “and”; a condition that tells them apart may be missing. Equal values may be shown once.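 48-hour exposure; five concentrations; linearly interpolated endpoints. GI50: concentration for 50% inhibition of growth. The concentration for full growth arrest is given as TGI.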

Consider `Brc1ccc(Nc2nc3ccccc3nc2Nc2ccc(Br)cc2)cc1`, for which, in the assay with HS 578T breast, the GI50 is 2.9 µM and the TGI is 9.05 µM. Also, in the assay with T-47D breast, the GI50 was 0.936 µM and the TGI was 7.09 µM.

As to `C=C1C(=O)OC2CC1C(OC(C)=O)C/C(C)=C/CC/C(C)=C\CCC2(C)O` (stereo not drawn), the TGI is 15.9 µM and 12.3 µM in the assay with MDA-N; 25.1 µM and 26.2 µM in the assay on HS 578T breast; 14.6 µM and 62.7 µM with T-47D breast.

Take `O=c1[nH]c(F)nc2c1ncn2C1OC(CO)C(O)C1O` (stereo not drawn): the GI50 in the assay with HS 578T breast and in the assay on T-47D breast was above 100 µM throughout. The TGI in the assay on HS 578T breast and in the assay with T-47D breast was above 100 µM each time.

As for `CC(Cc1cccc2c1Nc1ccccc1S2)N(C)CCO` (stereo not drawn), the TGI in the assay with MDA-N, with HS 578T breast and in the assay on T-47D breast was above 100 µM throughout.

`Cn1c(=O)c2[nH]c(CCCc3ccc([N+](=O)[O-])cc3)nc2n(C)c1=O`: the TGI with MDA-N, with HS 578T breast and in the assay on T-47D breast was above 100 µM in each case.

Take `NCCCNc1nc2ccc(Cl)cc2c2c(=O)c3cc(F)ccc3sc12`: in the assay with HS 578T breast, the GI50 was 3.22 µM and the TGI turned out to be 17.7 µM. Moreover, in the assay on T-47D breast, the GI50 was 9.65 µM and the TGI is 34.3 µM.

Consider `COC(=O)[C@@H](C)C[C@H](Cc1ccccc1)NC(=O)c1csc([C@@H](C[C@H](C(C)C)N(C)C(=O)C2(NC(=O)[C@H]3CCCCN3C)CCC2)OC(C)=O)n1`, for which the GI50 in the assay on HS 578T breast was 0.0463 µM.

In the case of `O=C1NC(=O)C(c2ccccc2)=C1Nc1ccccc1`, in the assay on HS 578T breast, the GI50 is 16.3 µM and the TGI is above 25 µM. Besides, in the assay on T-47D breast, the GI50 is above 25 µM and the TGI was above 25 µM.

With `COc1cc2c(cc1OCCCCn1c(-c3cccs3)nc3ccccc31)N=C[C@@H]1CCCN1C2=O`, in the assay with HS 578T breast, the GI50 was 1.7 µM and the TGI was determined as 6.43 µM. In addition, in the assay with T-47D breast, the GI50 is 0.503 µM and the TGI came out at 3.65 µM.

On to `C=C(CN1CCN(c2ccccc2C(F)(F)F)CC1)c1ccc(C(=O)Nc2ccccc2N)cc1`, for which, in the assay on HS 578T breast, the GI50 was 12.8 µM and the TGI is above 100 µM. Besides, in the assay on T-47D breast, the GI50 was 7.67 µM and the TGI was above 100 µM.

Regarding `O=C1c2cccnc2C(=O)c2c1c(C(=O)OCCc1ccccn1)c1ccccn21`, the GI50 in the assay on HS 578T breast is below 0.0338 µM; with T-47D breast it was 1.71 µM. Besides, the TGI with HS 578T breast came to 3.21 µM; in the assay with T-47D breast, 8.39 µM.

With `O=C([O-])CCc1ccccc1.O=C([O-])CCc1ccccc1.O=C([O-])CCc1ccccc1.O=C([O-])CCc1ccccc1.[Mo+2].[Mo+2]`, the GI50 in the assay on HOP-18 NSCLC, in the assay with DMS 114 small cell lung and in the assay with KM20L2 colon was above 100 µM in each case. In addition, the TGI in the assay with HOP-18 NSCLC, in the assay on DMS 114 small cell lung and in the assay with KM20L2 colon was above 100 µM in each case.

Regarding `COc1ccccc1NC(=O)C(=O)Cc1cnc2ccccc2n1`, the TGI in the assay with MDA-N, with HS 578T breast and in the assay with T-47D breast was above 100 µM in each case.

Regarding `CCOC(=O)c1cn(CC)c2ccc3ccsc3c2c1=O`, the TGI with MDA-N, with HS 578T breast and with T-47D breast was above 100 µM throughout.

Consider `CCCCCCc1cc2cc(-c3csc(/C=C/c4ccccc4)n3)c(=O)oc2cc1O`, for which, in the assay with HS 578T breast, the GI50 was 9 µM and the TGI worked out at 42.7 µM. For the same compound, in the assay on T-47D breast, the GI50 was 13.9 µM and the TGI is above 100 µM.

`COc1ccc(/C=C/C(=O)c2ccc(Nc3nc(Nc4ccc(F)cc4)nc(Nc4ccc(Cl)cc4)n3)cc2)cc1`: the GI50 with HS 578T breast is 14.6 µM; in the assay with T-47D breast it was 72.6 µM. The TGI in the assay on HS 578T breast is 52.3 µM; in the assay on T-47D breast, above 100 µM.

For the compound `CCc1nc2ccccc2c(=O)n1/N=C(\N=Nc1ccc(Cl)cc1)c1ccccc1`, the TGI in the assay on HOP-18 NSCLC was determined as 71 µM; with DMS 114 small cell lung, 59.3 µM; in the assay with KM20L2 colon, 27.7 µM; with DMS 273 small cell lung, 50 µM.

As to `CCOc1cc(/C=C/C(=O)C(C(=O)/C=C/c2ccc(OC(=O)CNc3nnc(C)s3)c(OCC)c2)C(=O)CNc2nnc(C)s2)ccc1OC(=O)CNc1nnc(C)s1`, in the assay on HS 578T breast, the GI50 is 2.28 µM and the TGI turned out to be 12.4 µM. In the assay on T-47D breast, the GI50 was 3.4 µM and the TGI is 35.6 µM.

On to `O=C(/C=C/c1nnc2n(Cc3ccccc3)c(=O)c3c4c(sc3n12)CCCC4)c1ccccc1`, for which, in the assay with HS 578T breast, the GI50 was 3.76 µM and 0.502 µM; the TGI was above 100 µM.

Turning to `FC(F)(F)c1ccc(-c2ncc(-c3ccc(C(F)(F)F)cc3)c(NCc3cc(C(F)(F)F)cc(C(F)(F)F)c3)n2)cc1`, in the assay with HS 578T breast, the GI50 is 2.83 µM and the TGI was 27.4 µM. In the assay on T-47D breast, the GI50 is 3.12 µM and the TGI is 29 µM.

`COc1cc(/C=C/C(=O)c2c(C)nc3ccccc3c2C)ccc1OCCCCOc1cc2c(cc1OC)C(=O)N1CCC[C@H]1C=N2`: in the assay on HS 578T breast, the GI50 is 0.229 µM and the TGI was determined as 0.624 µM. In addition, in the assay on T-47D breast, the GI50 was 0.333 µM and the TGI was 1.36 µM.

On to `FC(F)(F)c1cc(-c2ncn(/C=C\c3nnco3)n2)cc(C(F)(F)F)c1`, for which, in the assay with HS 578T breast, the GI50 is 0.195 µM and the TGI was 8.28 µM. Moreover, in the assay with T-47D breast, the GI50 is 0.0567 µM and the TGI is above 41.5 µM.

As to `Cc1ccc(NC(=O)c2nc(S(C)(=O)=O)oc2-c2ccc(F)cc2)cc1Nc1ccc2ncn(C)c(=O)c2c1`, in the assay on HS 578T breast, the GI50 is 3.06 µM and the TGI was determined as 14.9 µM.

Regarding `O=C(O)CNCCc1ccccc1`, the TGI in the assay on MDA-N, in the assay with HS 578T breast and in the assay on T-47D breast was above 100 µM throughout.

Take `O=C1C(=C([O-])c2ccccc2)C(=O)c2ccccc21.O=C1C(=C([O-])c2ccccc2)C(=O)c2ccccc21.[Co+2]`: the GI50 in the assay with HOP-18 NSCLC was 54.4 µM; in the assay with KM20L2 colon it was above 100 µM. Also, the TGI in the assay on HOP-18 NSCLC and in the assay on KM20L2 colon was above 100 µM throughout.

On to `N#Cc1c2ccccc2c2nnc3ccc(C(F)(F)F)cc3n12`, for which, in the assay with T-47D breast, the GI50 is above 100 µM and the TGI is above 100 µM.

Regarding `N#Cc1c2ccccc2c2nnc3ccccc3n12`, in the assay with T-47D breast, the GI50 is above 100 µM and the TGI is above 100 µM.

The values are drawn from PubChem BioAssay (NCI).
